In publication PMC6858373 (Scientific Reports, 2019):
Like-named read-outs stand apart in the source and are kept apart here.

How the values were obtained:
[1] = molecular target: T1, FGF14:Nav1.6 C-tail complex (Homo sapiens, UniProt Q92915+Q9UQD0); test: Split-luciferase complementation assay (LCA) in Clone V double stable HEK293 cells; assay type: cell-based
T1 construct: polymerase chain reaction (PCR) amplification of the FGF14 open reading frame (nt 1–855); C-terminal fragment of Nav1.6 (amino acids 1763–1976) fused with CD4ΔC-tail (amino acids 1–395); expressed in transfected cells

[2] = molecular target: full-length P. pyralis luciferase (Photinus pyralis, UniProt P08659, K549A/L550V/N119G/N50D/S548I); assay type: cell-based
[3] = CC_NCI screening, LCA luminescence, biological replicate Set 1, normalized to on-plate 0.3% DMSO controls (n=16 per plate)
[4] = CC_NCI screening, LCA luminescence, biological replicate Set 2, normalized to on-plate 0.3% DMSO controls (n=16 per plate)
[5] = CC_NCI screening, LCA, biological replicate Set 1, normalized to on-plate 0.3% DMSO controls
[6] = CC_NCI screening, LCA, biological replicate Set 2, normalized to on-plate 0.3% DMSO controls
[7] = CC_NCI screening, average of Set 1 and Set 2, normalized to 0.3% DMSO controls
[8] = CC_NCI screening, full-length luciferase counter-screen luminescence, normalized to on-plate 0.3% DMSO controls
[9] = CC_NCI screening, full-length luciferase counter-screen, normalized to on-plate 0.3% DMSO controls

T1 sequence (Q92915 1-252 isoform Q92915-2): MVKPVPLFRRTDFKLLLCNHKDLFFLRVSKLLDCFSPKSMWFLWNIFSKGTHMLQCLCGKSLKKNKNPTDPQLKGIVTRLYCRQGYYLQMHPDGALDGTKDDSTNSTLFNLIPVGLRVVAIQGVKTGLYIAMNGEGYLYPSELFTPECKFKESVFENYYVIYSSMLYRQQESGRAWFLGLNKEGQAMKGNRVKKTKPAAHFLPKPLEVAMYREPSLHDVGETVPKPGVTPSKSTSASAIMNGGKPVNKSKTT
T1 sequence (Q9UQD0 1763-1976 limits assumed): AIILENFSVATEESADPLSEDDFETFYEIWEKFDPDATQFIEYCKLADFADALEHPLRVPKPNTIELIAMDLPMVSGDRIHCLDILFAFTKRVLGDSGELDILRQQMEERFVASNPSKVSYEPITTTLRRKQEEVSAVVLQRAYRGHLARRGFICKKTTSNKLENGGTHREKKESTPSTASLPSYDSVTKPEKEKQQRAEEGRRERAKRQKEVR
Sequence of full-length P. pyralis luciferase (P08659 whole entry N50D/N119G/S548I/K549A/L550V, looked up): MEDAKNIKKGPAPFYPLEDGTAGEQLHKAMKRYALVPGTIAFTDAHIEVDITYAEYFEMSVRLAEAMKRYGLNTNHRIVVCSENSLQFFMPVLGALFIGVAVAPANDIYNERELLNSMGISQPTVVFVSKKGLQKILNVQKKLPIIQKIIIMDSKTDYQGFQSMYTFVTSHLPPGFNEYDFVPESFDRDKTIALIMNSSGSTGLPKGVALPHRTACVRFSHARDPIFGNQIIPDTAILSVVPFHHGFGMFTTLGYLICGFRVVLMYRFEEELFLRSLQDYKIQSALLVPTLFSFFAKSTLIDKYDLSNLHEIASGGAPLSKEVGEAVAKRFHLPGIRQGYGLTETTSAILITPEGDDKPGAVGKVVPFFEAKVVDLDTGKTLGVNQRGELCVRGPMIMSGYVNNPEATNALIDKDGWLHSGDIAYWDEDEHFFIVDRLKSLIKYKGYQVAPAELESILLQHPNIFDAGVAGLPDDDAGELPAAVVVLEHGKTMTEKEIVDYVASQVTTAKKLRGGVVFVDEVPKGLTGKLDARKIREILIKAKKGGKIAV

SMILES: CS(=O)(=O)CCNCc1ccc(-c2ccc3ncnc(Nc4ccc(OCc5cccc(F)c5)c(Cl)c4)c3c2)o1 [Lapatinib]
- Split Luciferase Assay Z-score Set 1 ([1]; CC_NCI screening, biological replicate Set 1, normalized to on-plate 0.3% DMSO controls): 1.35
- Split Luciferase Assay Z-score Set 2 ([1]; CC_NCI screening, biological replicate Set 2, normalized to on-plate 0.3% DMSO controls): -1.87
- Split Luciferase Assay %Lum Set 2 ([1]; CC_NCI screening, biological replicate Set 2, normalized to on-plate 0.3% DMSO controls (n=16 per plate)): 76.98%
- Split Luciferase Assay %Lum Avg ([1]; average of Set 1 and Set 2, normalized to 0.3% DMSO controls): 96.81%
- Luciferase Assay % Lum (full-length luciferase counter-screen) [2]: 75.39%
- Luciferase Assay Z-score (full-length luciferase counter-screen) [2]: -3.15
- Toxicity Assay % Fluor (CTB cell viability fluorescence) (Clone V cells): 114.10%
- Toxicity Assay Z-score (CTB cell viability) (Clone V cells): 1.97

SMILES: O=C(CCBr)N1CCN(C(=O)CCBr)CC1 [Pipobroman]
- Split Luciferase Assay % Lum Set 1 [1, 3]: 125.34%
- Split Luciferase Assay %Lum Set 2 [1, 4]: 121.72%
- Split Luciferase Assay Z-score Set 1 [1, 5]: 2.05
- Split Luciferase Assay Z-score Set 2 [1, 6]: 1.77
- Split Luciferase Assay %Lum Avg [1, 7]: 123.53%
- Luciferase Assay % Lum [2]: 102.03%
- Luciferase Assay Z-score [2]: 0.26
- Toxicity Assay % Fluor (Clone V cells; human, 16 h, 30 µM): 98.07%
- Toxicity Assay Z-score (Clone V cells; human, 16 h, 30 µM): -0.27

SMILES: C[C@]12CC[C@@H]3c4ccc(OC(=O)N(CCCl)CCCl)cc4CC[C@H]3[C@@H]1CC[C@@H]2OP(=O)(O)O [Estramustine phosphate sodium]
- Split Luciferase Assay % Lum Set 1 [1]: 26.42%
- Split Luciferase Assay %Lum Avg [1]: 32.45%
- Split Luciferase Assay %Lum Set 2 [1]: 38.49%
- Split Luciferase Assay Z-score Set 1 [1]: -5.95
- Split Luciferase Assay Z-score Set 2 [1]: -5.00
- Luciferase Assay % Lum [2]: 86.35%
- Luciferase Assay Z-score [2]: -1.75
- Toxicity Assay % Fluor (Clone V cells; human): 92.97%
- Toxicity Assay Z-score (Clone V cells; human): -0.98

SMILES: O=C(c1ccc(OCCN2CCCCC2)cc1)c1c(-c2ccc(O)cc2)sc2cc(O)ccc12 [Raloxifene]
- Split Luciferase Assay % Lum Set 1 [1, 3]: 56.86%
- Split Luciferase Assay %Lum Set 2 [1, 4]: 52.02%
- Split Luciferase Assay Z-score Set 1 [1, 5]: -3.49
- Split Luciferase Assay Z-score Set 2 [1, 6]: -3.90
- Split Luciferase Assay %Lum Avg [1, 7]: 54.44%
- Luciferase Assay % Lum [2, 8]: 91.29%
- Luciferase Assay Z-score [2, 9]: -1.12
- Toxicity Assay % Fluor (Clone V cells; human, 16 h, 30 µM): 90.90%
- Toxicity Assay Z-score (Clone V cells; human, 16 h, 30 µM): -1.27

SMILES: Cl.Cn1c(CCCC(=O)O)nc2cc(N(CCCl)CCCl)ccc21 [Bendamustine hydrochloride]
- Split Luciferase Assay % Lum Set 1 [1, 3]: 111.21%
- Split Luciferase Assay %Lum Set 2 [1, 4]: 127.96%
- Split Luciferase Assay Z-score Set 1 [1, 5]: 0.91
- Split Luciferase Assay Z-score Set 2 [1, 6]: 2.27
- Split Luciferase Assay %Lum Avg [1, 7]: 119.58%
- Luciferase Assay % Lum [2, 8]: 101.61%
- Luciferase Assay Z-score [2, 9]: 0.21
- Toxicity Assay % Fluor (Clone V cells): 87.62%
- Toxicity Assay Z-score (Clone V cells): -1.73

SMILES: COc1cc2/c(=N/c3ccc(Br)cc3F)nc[nH]c2cc1OCC1CCN(C)CC1 [VANDETANIB]
- Split Luciferase Assay % Lum Set 1 [1, 3]: 85.12%
- Split Luciferase Assay %Lum Set 2 [1, 4]: 88.43%
- Split Luciferase Assay Z-score Set 1 [1, 5]: -1.20
- Split Luciferase Assay Z-score Set 2 [1, 6]: -0.94
- Split Luciferase Assay %Lum Avg [1, 7]: 86.77%
- Luciferase Assay % Lum [2, 8]: 102.19%
- Luciferase Assay Z-score [2, 9]: 0.28
- Toxicity Assay % Fluor (Clone V cells): 85.66%
- Toxicity Assay Z-score (Clone V cells): -2.01

SMILES: COc1cc2ncnc(Nc3cccc(Br)c3)c2cc1OC [PD 153035]
- Split Luciferase Assay Z-score Set 1 [1]: 3.54
- Split Luciferase Assay Z-score Set 2 [1]: 1.77
- Split Luciferase Assay % Lum Set 1 [1, 3]: 143.82%
- Split Luciferase Assay %Lum Set 2 [1, 4]: 121.72%
- Split Luciferase Assay %Lum Avg [1, 7]: 132.77%
- Luciferase Assay % Lum [2]: 83.75%
- Luciferase Assay Z-score [2]: -2.08
- Toxicity Assay % Fluor (Clone V cells; human, 16 h, 30 µM): 98.57%
- Toxicity Assay Z-score (Clone V cells; human, 16 h, 30 µM): -0.20

SMILES: CC(=O)Nc1cccc(-n2c(=O)n(C3CC3)c(=O)c3c(Nc4ccc(I)cc4F)n(C)c(=O)c(C)c32)c1 [Trametinib]
- Split Luciferase Assay % Lum Set 1 [1, 3]: 101.43%
- Split Luciferase Assay %Lum Set 2 [1, 4]: 79.06%
- Split Luciferase Assay Z-score Set 1 [1, 5]: 0.12
- Split Luciferase Assay Z-score Set 2 [1, 6]: -1.70
- Split Luciferase Assay %Lum Avg [1, 7]: 90.25%
- Luciferase Assay % Lum [2, 8]: 95.81%
- Luciferase Assay Z-score [2, 9]: -0.54
- Toxicity Assay % Fluor (Clone V cells; human, 16 h, 30 µM): 92.79%
- Toxicity Assay Z-score (Clone V cells; human, 16 h, 30 µM): -1.01
